molecular target: FIXa (Homo sapiens, UniProt P00740); assay: FXa generation assay with human FIXa; assay type: biochemical; parameters: purchased Haematologic Technologies; settings: FXa generation assay using human FIXa; class symbols
Sequence (P00740 47-191 limits assumed): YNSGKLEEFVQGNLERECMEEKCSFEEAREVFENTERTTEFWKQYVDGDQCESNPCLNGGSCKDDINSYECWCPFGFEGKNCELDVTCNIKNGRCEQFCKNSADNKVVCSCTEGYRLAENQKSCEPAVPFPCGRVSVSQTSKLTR
Sequence (P00740 227-461 limits assumed): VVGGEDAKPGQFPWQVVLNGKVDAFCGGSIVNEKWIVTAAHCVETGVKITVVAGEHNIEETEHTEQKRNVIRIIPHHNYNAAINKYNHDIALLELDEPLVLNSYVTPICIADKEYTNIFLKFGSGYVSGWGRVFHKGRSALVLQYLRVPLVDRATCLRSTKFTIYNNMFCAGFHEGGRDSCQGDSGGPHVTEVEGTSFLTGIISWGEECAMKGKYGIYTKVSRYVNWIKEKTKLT
From the text: FXa generation was utilized to assess the capability of the compounds of the present disclosure to enhance the catalytic activities of FIXa and/or FVIIa.
To measure the catalytic activity of FIXa, FIXa was mixed with FX and phospholipids in the presence of calcium chloride. Under these conditions FIXa cleaves the zymogen FX into the active form FXa.
The generation of FXa is monitored by the change in absorbance of the reaction at 405 nm due to the presence of a cleavable FXa chromogenic substrate (S-2765; Z-D-Arg-Gly-Arg-pNA; cleavage of p-nitroaniline). […] The kit contains all the FXa generation components, however, FIXa and FX obtained from this kit are from a bovine origin and were replaced with purified human FIXa or human FVIIa and human FX (Haematologic Technologies).
The assay was also modified to enhance the screening throughput. Instead of the sequential addition, all the assay components were mixed and added simultaneously to the purified compound to be assayed. A 125 μl reaction mix of the assay components was prepared in the buffer supplied by the manufacturer (50 mM Tris 7.3, and 1% BSA). […] The reaction mix (125 ul) was then added to 25 ul of compound diluted in water in a Costar-3651 flat bottom 96-well plate. […] The absorbance was monitored over a period of 1 hour at 405 nm using a plate reader (Synergy 2, Biotek).
The 405 nm absorbance data were then analyzed to obtain the slope of the first derivative which reflects the rate of change in absorbance. The first derivative slope data for each compound concentration were plotted against the compound concentration and fitted to a four-parameter equation to obtain the EC50 and Vmax values for each compound tested.

Row | Substance | Vmax | EC50 [nM]
1 | KLTCQASYCWLF | (++) ((++) 1-2) | –
2 | RLTCLASYCWLF | (+++) ((+++)>2) | –
3 | SKWEHQRGCLANNCWLFTLAPG | (+) ((+)<1) | –
4 | GGALQQLTCPASYCWLFPMEHS | (+) ((+)<1) | –
5 | KLTCKASYCWLF | (++++) ((++++)>3) | –
6 | RGSVHQPTCLGGYCGRLHSSWV | (+) ((+)<1) | –
7 | GDSGRKLSCLGSYCWLSVQFMA | (++) ((++) 1-2) | –
8 | KGAYQKLTCLASYCLLFLLTAQ | (++) ((++) 1-2) | –
9 | KEGFAQLPCLVCQGGLFSPRAI | (+) ((+)<1) | –
10 | SRQSDKPTCLAISCSLLTSNVR | (+) ((+)<1) | –
11 | QAKMLKLTCLASYCWLFWVTRS | (+++) ((+++)>2) | –
12 | TLDSKNLQCLGSSCWLFSSGLS | (+) ((+)<1) | –
13 | RSFTSELTCLASSCRRFHHVPP | (+) ((+)<1) | –
14 | HGLADRLTCLSSDCWLQPFGTS | (+) ((+)<1) | –
15 | DSRSAKRKCLASYCWLFGIGQA | (+) ((+)<1) | –
16 | GIQGSEVACRASFCRLFEQGHV | (+) ((+)<1) | –
17 | HQQRRKLTCLAGYCWLFVLGPS | (+++) ((+++)>2) | –
18 | WHERQQLTCLASYCGLFVGQVA | (+) ((+)<1) | –
19 | KLTCLKSYCWLF | (++) ((++) 1-2) | –
20 | QLTCLASYCWLF | (+) ((+)<1) | –
21 | SISGQQLTCRASHCWLNLPWHS | (+) ((+)<1) | –
22 | SGFGMKLTCLASYCGLFQGEIG | (+) ((+)<1) | –
23 | RSQGRKLTCLASYCWLFLVVHR | (++) ((++) 1-2) | –
24 | GSCRDQLTCLSSDRWQFFRRVS | (+) ((+)<1) | –
25 | AQTRVARCCQLF | (+) ((+)<1) | –
26 | KLTCLATYCWLF | (++) ((++) 1-2) | –
27 | LLQIPNLTCLGSYCWLDNGVYA | (+) ((+)<1) | –

Row | Substance | Vmax | EC50 [nM]
28 | GVEDRQLTCLASSCWVFSRHSV | (++) ((++) 1-2) | –
29 | KLTCLASKCWLF | (+) ((+)<1) | –
30 | KLTCLASYCQLV | (+++) ((+++)>2) | –
31 | HMQWGKLPCLASYCWLFWYGIG | (+++) ((+++)>2) | –
32 | AVAINKVPCVASYCQLFESKIH | (+) ((+)<1) | –
33 | VQRSTQLTCLYGGCRLFGWNYH | (+) ((+)<1) | –
34 | HLGSPKLTCGASQCWLLNHEVS | (+) ((+)<1) | –
35 | SYGRTKLTCLASSCWLFGQVHG | (+) ((+)<1) | –
36 | GAQLDKETCLASYCQLFSTVRR | (+) ((+)<1) | –
37 | RHSNHNLTCQASYCWLLPAGLQ | (+) ((+)<1) | –
38 | KLKCLASYCWLF | (++++) ((++++)>3) | 500 to 1000
39 | NGGMQKPACLASQCWLFANPLP | (++) ((++) 1-2) | –
40 | QEQPAKLTCRGSYCWLFKRGDQ | (+) ((+)<1) | –
41 | SGRGGKLTCQASFCQLFGNGLS | (++) ((++) 1-2) | –
42 | TLTCRASYCQLF | (+) ((+)<1) | –
43 | LTWREKLACLASYCWLFLWGAP | (++) ((++) 1-2) | –
44 | RPGGGKVTCQASYCWPFLARAG | (+) ((+)<1) | –
45 | QQTCQASQCQLF | (+) ((+)<1) | –
46 | RGRSAKLRCLASYCWLFFTVIL | (+++) ((+++)>2) | –
47 | VDKGHQLRCQAGYCWLLGYNRE | (+) ((+)<1) | –
48 | VAHYGKVTCLASYCQPLPSVGA | (+) ((+)<1) | –
49 | GEGGGKLSCVAIQCGLFKGLGR | (+) ((+)<1) | –
50 | LQELTKLTCLARSGWLVCNPGY | (+) ((+)<1) | –
51 | QDGDGKLTCRASYCRRFLVGVH | (+) ((+)<1) | –
52 | MAGMLKLTCFASYCGLFPLVSS | (++) ((++) 1-2) | –
53 | KLTCRASYCQLF | (+++) ((+++)>2) | –

same assay, conditions: FXa generation assay using human FIXa; numeric bounds

Row | Substance | Vmax
54 | RCAQSRLPWLVSYCWLFSPYGM | >1.5
55 | RYQRARLTCLASYCGLLFSMSA | >0.5
56 | LRQRLAKTCVASYCWLFSLVAS | >1.5
57 | EGRRDKLTCLASYCWLVGHGQH | >0.3
58 | KKTCVASFCQMI | >4
59 | GASGRRRTCVASYCLLFQSGLP | >0.1
60 | HYARVQLRCLDGYCWLLTKSRM | >2.5
61 | WVPQWKVTCLASCSRLFHGFDA | >1.5

same assay, conditions: FXa generation assay, 10 nM hFIXa, 100 nM hFX; class symbols

Row | Substance | Vmax
62 | PRIrTVGPGSrSASGKSTCLASYCWLFWTGIA [Compound 24] | (++++) ((++++)>3)

Source: patent US9486507B2, “Pro-coagulant compounds and methods of use thereof” (priority 2011, dated 2016)
